The record followed here is US20220298141A1, “ENZYME INHIBITORS” (KALVISTA PHARMACEUTICALS LIMITED, priority 2019, published 2022).

For the test, the target named is T1, Human Factor XIIa (Homo sapiens, UniProt P00748).
T1 construct: purchased Enzyme Research Laboratories
T1 sequence (P00748 373-615 limits assumed): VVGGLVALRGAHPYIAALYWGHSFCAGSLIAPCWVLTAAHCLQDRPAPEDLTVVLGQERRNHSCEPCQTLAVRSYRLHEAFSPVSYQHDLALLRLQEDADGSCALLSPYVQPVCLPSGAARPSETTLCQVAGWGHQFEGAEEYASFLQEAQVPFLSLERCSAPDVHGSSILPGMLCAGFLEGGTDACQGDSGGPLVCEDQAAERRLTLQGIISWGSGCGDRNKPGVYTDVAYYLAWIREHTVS
T1 sequence (P00748 20-372 partner limits assumed): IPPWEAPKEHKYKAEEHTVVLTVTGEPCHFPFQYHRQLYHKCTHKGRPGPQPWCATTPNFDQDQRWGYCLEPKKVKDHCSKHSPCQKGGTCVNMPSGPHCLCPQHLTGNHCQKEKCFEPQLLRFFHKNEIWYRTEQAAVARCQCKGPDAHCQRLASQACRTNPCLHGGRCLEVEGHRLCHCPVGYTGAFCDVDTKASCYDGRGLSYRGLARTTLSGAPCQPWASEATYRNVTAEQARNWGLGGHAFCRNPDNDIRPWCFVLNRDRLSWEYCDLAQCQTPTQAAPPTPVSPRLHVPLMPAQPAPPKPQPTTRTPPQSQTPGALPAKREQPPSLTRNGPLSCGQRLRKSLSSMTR
The experiment in a line: Determination of Factor XIIa inhibitory activity in vitro (fluorogenic substrate H-DPro-Phe-Arg-AFC). It counts as biochemical. Particulars: Human Factor XIIa (Enzyme Research Laboratories), 25° C., read-out: Human FXIIa IC50. As to the method: Determination of the % Inhibition for FXIIa
Factor XIIa inhibitory activity in vitro was determined using standard published methods (see e.g. Shori et al., Biochem. Pharmacol., 1992, 43, 1209; Baeriswyl et al., ACS Chem. Biol., 2015, 10 (8) 1861; Bouckaert et al., European Journal of Medicinal Chemistry 110 (2016) 181). Human Factor XIIa (Enzyme Research Laboratories) was incubated at 25° C. with the fluorogenic substrate H-DPro-Phe-Arg-AFC and various concentrations of the test compound. Residual enzyme activity (initial rate of reaction) was determined by measuring the […] and the IC50 value for the test compound was determined.

For `Nc1nccc2cc(CNC(=O)c3cc(Cl)cnc3NC3CCCC3)ccc12` [Example 1.01], the half-maximal inhibitory concentration (IC50) lay within 10 to 40 µM.

In the case of `Nc1nccc2cc(CNC(=O)c3cc(Cl)cnc3NCc3ccccc3)ccc12` [Example 1.02], the half-inhibitory concentration (IC50) lay within 10 to 40 µM. For `Nc1nccc2cc(CNC(=O)c3cc(Cl)cnc3NCC3CCOCC3)ccc12` [Example 1.03] the value was 10 to 40 µM. For `Nc1nccc2cc(CNC(=O)c3cc(Cl)cnc3Nc3ccccc3)ccc12` [Example 1.04] the value was 10 to 40 µM. As to `COc1ccc(CNc2ncc(Cl)cc2C(=O)NCc2ccc3c(N)nccc3c2)cc1` [Example 1.05], the concentration for half-maximal inhibition (IC50) was in the range of 10 to 40 µM. For `CS(=O)(=O)c1cccc(CNc2ncc(Cl)cc2C(=O)NCc2ccc3c(N)nccc3c2)c1` [Example 1.06] the value was 3 to 10 µM; for `CN(C)c1cccc(CNc2ncc(Cl)cc2C(=O)NCc2ccc3c(N)nccc3c2)c1` [Example 1.07], 10 to 40 µM. `COCCNc1ncc(Cl)cc1C(=O)NCc1ccc2c(N)nccc2c1` [Example 1.08]: the IC50 was 3 to 10 µM. For `CN(C)CCNc1ncc(Cl)cc1C(=O)NCc1ccc2c(N)nccc2c1` [Example 1.09] the value was 1 to 3 µM. In the case of `Nc1nccc2cc(CNC(=O)c3cc(Cl)cnc3NCCN3CCCCC3)ccc12` [Example 1.10], the IC50 lay in the range of 1 to 3 µM. For `Nc1nccc2cc(CNC(=O)c3cc(Cl)cnc3NCCN3CCOCC3)ccc12` [Example 1.11] the value was 3 to 10 µM; for `CN1CCN(CCNc2ncc(Cl)cc2C(=O)NCc2ccc3c(N)nccc3c2)CC1` [Example 1.12], 1 to 3 µM; for `CN1CCC(CNc2ncc(Cl)cc2C(=O)NCc2ccc3c(N)nccc3c2)CC1` [Example 1.13, N-[(1-Amino-6-isoquinolyl)methyl]-5-chloro-2-[(1-methyl-4-piperidyl)methylamino]pyridine-3-carboxamide], 0.3 to 1 µM. `Nc1nccc2cc(CNC(=O)c3cc(Cl)cnc3NCCOc3ccccc3)ccc12` [Example 1.14]: the IC50 was in the range of 3 to 10 µM. With `Nc1nccc2cc(CNC(=O)c3cc(Cl)cnc3NCCCOc3ccccc3)ccc12` [Example 1.15], the IC50 lay in the range of 10 to 40 µM. For `Nc1nccc2cc(CNC(=O)c3cc(Cl)cnc3NCCn3ccnc3)ccc12` [Example 1.16] the value was 3 to 10 µM; for `Nc1nccc2cc(CNC(=O)c3cc(Cl)cnc3NCCN3CCS(=O)(=O)CC3)ccc12` [Example 1.17], 3 to 10 µM; for `CC(C)CCNc1ncc(Cl)cc1C(=O)NCc1ccc2c(N)nccc2c1` [Example 1.18], 10 to 40 µM. Regarding `CC(=O)NCCNc1ncc(Cl)cc1C(=O)NCc1ccc2c(N)nccc2c1` [Example 1.19], the IC50 was in the range of 3 to 10 µM.

Consider `CC(=O)NCCCNc1ncc(Cl)cc1C(=O)NCc1ccc2c(N)nccc2c1` [Example 1.20], for which the IC50 lay within 3 to 10 µM. On to `Nc1nccc2cc(CNC(=O)c3cc(Cl)cnc3NCc3ccc4c(c3)OCO4)ccc12` [Example 1.21], for which the IC50 lay within 10 to 40 µM. For `CN1CCCc2cc(CNc3ncc(Cl)cc3C(=O)NCc3ccc4c(N)nccc4c3)ccc21` [Example 1.22] the value was 3 to 10 µM.

As to `Nc1nccc2cc(CNC(=O)c3cc(Cl)cnc3NCc3ccncc3)ccc12` [Example 1.23], the IC50 is 3 to 10 µM. The value for `Nc1nccc2cc(CNC(=O)c3cc(Cl)cnc3NCc3cccnc3)ccc12` [Example 1.24] was 3 to 10 µM; that for `CC(C)N(CCNc1ncc(Cl)cc1C(=O)NCc1ccc2c(N)nccc2c1)C(C)C` [Example 1.25] was 0.3 to 1 µM; that for `CC(C)N1CCN(CCCNc2ncc(Cl)cc2C(=O)NCc2ccc3c(N)nccc3c2)CC1` [Example 1.26] was 1 to 3 µM. The value for `Nc1nccc2cc(CNC(=O)c3cc(Cl)cnc3NCc3cccc(N4CCCCC4)c3)ccc12` [Example 1.27] was 10 to 40 µM; that for `Nc1nccc2cc(CNC(=O)c3cc(Cl)cnc3NCC3CCN(c4ccncc4)CC3)ccc12` [Example 1.28] was 0.3 to 1 µM. Take `Nc1nccc2cc(CNC(=O)c3cc(Cl)cnc3NCCN3CCCC3=O)ccc12` [Example 1.29]: the IC50 lay in the range of 3 to 10 µM.

Regarding `CN1CCN(c2ccccc2CNc2ncc(Cl)cc2C(=O)NCc2ccc3c(N)nccc3c2)CC1` [Example 1.30], the concentration for half-maximal inhibition (IC50) fell in the range of 3 to 10 µM. For `Nc1nccc2cc(CNC(=O)c3cc(Cl)cnc3NCC3CCN(Cc4ccccc4)CC3)ccc12` [Example 1.31] the value was 1 to 3 µM. For `Nc1nccc2cc(CNC(=O)c3cc(Cl)cnc3NCc3ccc(N4CCCCC4=O)cc3)ccc12` [Example 1.32] the value was 10 to 40 µM; for `Nc1nccc2cc(CNC(=O)c3cc(Cl)cnc3NCc3cccc(N4CCCC4=O)c3)ccc12` [Example 1.33], 10 to 40 µM; for `Nc1nccc2cc(CNC(=O)c3cc(Cl)cnc3NCc3ccc(CN4CCCC4=O)cc3)ccc12` [Example 1.34], 10 to 40 µM. The value for `CN1CCC(N(C)c2ncc(Cl)cc2C(=O)NCc2ccc3c(N)nccc3c2)CC1` [Example 1.35] was 10 to 40 µM; that for `CN1CCN(CCCNc2ncc(Cl)cc2C(=O)NCc2ccc3c(N)nccc3c2)CC1` [Example 1.36] was 1 to 3 µM; that for `COc1ccc(Nc2ncc(Cl)cc2C(=O)NCc2ccc3c(N)nccc3c2)cc1` [Example 1.37] was 10 to 40 µM.

As to `COc1ccccc1Nc1ncc(Cl)cc1C(=O)NCc1ccc2c(N)nccc2c1` [Example 1.38], the IC50 fell in the range of 10 to 40 µM. Take `CN(C)c1ccc(Nc2ncc(Cl)cc2C(=O)NCc2ccc3c(N)nccc3c2)cc1` [Example 1.39]: the IC50 lay within 10 to 40 µM. For `CN(C)c1cccc(Nc2ncc(Cl)cc2C(=O)NCc2ccc3c(N)nccc3c2)c1` [Example 1.40] the value was 10 to 40 µM. For `CN(C)c1ccccc1Nc1ncc(Cl)cc1C(=O)NCc1ccc2c(N)nccc2c1` [Example 1.41] the value was 10 to 40 µM; for `CS(=O)(=O)Nc1cccc(Nc2ncc(Cl)cc2C(=O)NCc2ccc3c(N)nccc3c2)c1` [Example 1.42], 10 to 40 µM. The value for `CN1CCC(CNc2cccc(C(=O)NCc3ccc4c(N)nccc4c3)n2)CC1` [Example 4.26] was 1 to 3 µM; that for `CN1CCCN(c2ncc(C(=O)NCc3ccc4c(N)nccc4c3)cc2Cl)CC1` [Example 8.01] was 10 to 40 µM; that for `COc1ccc(CN(C)c2ncc(C(=O)NCc3ccc4c(N)nccc4c3)cc2Cl)cc1` [Example 8.02] was 10 to 40 µM. With `CC(C)N1CCN(c2ncc(C(=O)NCc3ccc4c(N)nccc4c3)cc2Cl)CC1` [Example 8.03], the IC50 lay within 10 to 40 µM. For `Nc1nccc2cc(CNC(=O)c3cnc(N4CC(O)C4)c(Cl)c3)ccc12` [Example 8.04] the value was 10 to 40 µM; for `CN(C)CCCOc1cccc(CN(C)c2ncc(C(=O)NCc3ccc4c(N)nccc4c3)cc2Cl)c1` [Example 8.05], 10 to 40 µM; for `CN1CCC(N(C)c2ncc(C(=O)NCc3ccc4c(N)nccc4c3)cc2Cl)CC1` [Example 8.06, N-((1-aminoisoquinolin-6-yl)methyl)-5-chloro-6-(methyl(1-methylpiperidin-4-yl)amino)nicotinamide], 1 to 3 µM. The value for `CN(c1ncc(C(=O)NCc2ccc3c(N)nccc3c2)cc1Cl)C1CCOCC1` [Example 8.07] was 3 to 10 µM; that for `Nc1nccc2cc(CNC(=O)c3cnc(NC4CCCC4)c(Cl)c3)ccc12` [Example 11.01, N-((1-aminoisoquinolin-6-yl)methyl)-5-chloro-6-(cyclopentylamino)nicotinamide] was 10 to 40 µM.
